Laboratory results as given in patent US20030216319A1, “Specific autoimmune reactions against isomerised/optically inverted epitopes: application for treatment of autoimmune diseases” (priority 2000, published 2003).
*1 amine or outer side, *2 acyl side, *3 side chain or, on linkers, in order; H or OH if unused. Where no end group is shown, it is not given here. [ ]: non-standard residue; d: D form. βAsp = O=C(O)[C@H](CC(=O)[*:2])N[*:1]

Legend:
[1] = test system: auto-antibodies in RA sera; assay: ELISA detection of auto-antibodies in sera on Thy-GA-peptide conjugate coated plates (Example 2); type: binding, human; details: sera diluted one-hundred fold; MTP coated with Thy-GA conjugate 10 μg/ml; absorbency at 450 nm
Source text: It was investigated whether auto-antibodies would recognise an Asn-315 derived septa-peptide and whether such auto-antibodies are a characteristic feature of rheumatoid arthritis. In order to carry out such investigations the IgG Fc Asn-315 derived (βL) septa-peptide Trp-Leu-Asp-β-Gly-Lys-Glu-Tyr, was manufactured synthetically. The peptide used was a preparation of linear (αL form) Trp-Leu-Asn-Gly-Lys-Glu-Tyr peptide heated to promote isomerisation by the following procedure. The peptide was dissolved in the buffer and heated for 4 hours at 90° C. to promote isomerisation and/or optical inversion. The resulting mix of isomerised (βL) optically inverted (αD and βD) and linear (αL) peptides were analysed by RP-HPLC using a 15-35% acetonitrile gradient in 0.1% TFA over 10 minutes with a flow rate of 1 ml/min, and the isomerisation status of the resulting peaks were studied by amino-acid analysis as described above. This peptide was dissolved at 5 mg/ml in 0.2 M Na-Phosphate pH 9.2. […]
0.5 ml thyroglobulin (30 mg/ml) in 0.1 M Na-phosphate buffer pH 8.0, was added drop-wise (over 2 minutes) and under constant mixing to 0.5 mL of the following solution: 10% GA, 40% H2O, 50% 0.2 M Na-Phosphate pH 8.0. […] The final volume was adjusted to 1500 μL and the protein concentration was determined by a BioRad protein assay performed according to the manufacturers instructions. […]

RA autoantibodies = assay: Competition ELISA: binding of RA autoantibodies to Thy-GA-Trp-Leu-*Asx-Gly-Lys-Glu-Tyr coated plates (Example 3); design: species or system human; details: competitor 50 μl of 50 μg/ml pre-incubated with serum 17 hours at 4° C.; 6 RA sera
Description: The Thy-GA-Trp-Leu-*Asx-Gly-Lys-Glu-Tyr conjugate was dissolved in PBS to a final concentration of 10 μg/ml, and 100 μL of this solution is pipetted into the wells of a micro-titre-plate (MTP, flat-well polysorb, Nunc). the plate was blocked as described (Bonde et al 1994), and serum samples diluted one-hundred fold in 10 mM Na-phosphate, 140 mM NaCl, 0.1% tween-20, 1% BSA pH 7.4 (assay buffer) were added. The MTP was left for one hour ±5 minutes on a rotary shaker at 20° C. The plates were washed five times in washing buffer (25 mM tris, 140 mM NaCl, 0.1% tween-20 pH 7.4), by a manual plate washer. One-hundred μL assay buffer containing a one-thousand fold dilution of Perxidase conjugated rabbit anti human λ-chains (Dako 063) and κ-chains (Dako 013) was added into each well. The MTP was again incubated for one hour ±5 minutes on a rotary mixer at 20° C. After 5 times washing, 100 μl of peroxidase substrate was added (3,3′,5,5′ tetramethylbenzidine dihydrochloride (TMB), Kirkegaard & Perry Laboratories, USA) and incubated for 15±2 minutes at room temperature (18-22° C.) in the dark. After addition of 0.18 M H2SO4, the absorbency was measured at 450 nm.
The experiment was carried out as follows. Serum samples were diluted one-hundred fold in 10 mM Na-phosphate, 140 mM NaCl, 0.1% tween-20, 1% BSA pH 7.4 (assay buffer). Two-hundred μl was added to 1.5 ml polypropylene tubes followed by addition of 50 μl of the following reagents dissolved in assay buffer at a concentration of 50 μg/ml:
The tubes were placed at 4° C. for 17 hours, and one-hundred μl of the mixture was added into MTP coated with Thy-GA-Trp-Leu-*Asx-Gly-Lys-Glu-Tyr conjugate. The assay was performed as described above under example 2.

[2] = test system: auto-antibodies reactive with isomerised IgG Fc Asn-315 derived peptides; assay: Homogeneous RIA with 125I Thy-GA-Trp-Leu-*Asx-Gly-Lys-Glu-Tyr tracer, competition with peptides (Example 4); type: binding, human; details: highest concentration (10,000 ng/ml); P-0.01 by Student's T-Test
Description: A homogeneous RIA assay was developed for measurement of auto-antibodies with reactivity towards the isomerised form of the epitope Trp-Leu-Asn-Gly-Lys-Glu-Tyr derived from the IgG CH2 region. The assay was performed by incubating serum samples with ^125I Thy-GA-Trp-Leu-*Asx-Gly-Lys-Glu-Tyr overnight followed by precipitation of immune-complexes with protein A Sepharose.
Serum samples are diluted 1:200 in IMP buffer (IMP-buffer: 10 mm Na-Phosphate, pH 7.4, 140 mM NaCl, 5 mM EDTA, 0.5% Triton X-100, 0.1% BSA, 10 μg/ml soy-bean trypsin inhibitor). A Thy-GA-Trp-Leu-*Asx-Gly-Lys-Glu-Tyr conjugate is prepared as described in example 2 and iodinated with ^125I using the chloramine T protocol: 100 μg of the conjugate is diluted in 0.25 M Na2HPO4 to a total volume of 140 μl. 1.5 mCi Na^125I is added followed by 10 μL Chloramin-T (1 mg/ml, prepared freshly). The solution is vortexed for 30 seconds and 150 μL methionine (1 mg/ml) is added and immediately vortexed for 120 sec. The tracer is purified on size exclusion column (type: BIOSEP SEC S-2000, size: 300×7.80 mm) equilibrated with PBS containing 1% BSA Plow rate 1.0 ml/min. 500 μl fractions are collected and analysed in a scintillation counter (γ-counter). The fractions containing the tracer are pooled and used in the homogeneous RIA assay format. […]

Lewis rats [3] = assay: Induction of Experimental Autoimmune Encephalomyelitis by immunisation with MBP87-99 peptides (Example 7); type: in vivo, rat; details: for incidence of full-blown EAE (clinical score ≧2) / time of minimum weight / reduction of weight compared to PBS controls at minimum: Lewis rats, 200 μg peptide in CFA i.d.; for reduction of weight compared to PBS controls at minimum: 16 days post immunization
Source text: Experimental Autoimmune Encephalomyelitis (EAE) is a paralytical central nervous system (CNS) disease that can be induced readily in susceptible animals by immunisation with myelin proteins. In this experiment MBP87-99 peptides (VHFFKNIVTPRTP) in linear and isomerised forms were used for induction of clinical EAE in Lewis rats.
36 female Lewis (L haplotype, Harlan) rats, 8 weeks of age were used in the experiment.
The animals were randomly assigned to one of the following three treatment groups: 1) a group receiving Asn or isoAsp MBP87-99 peptides 2) a positive control group receiving whole guinea pig MBP, and a negative control receiving PBS. The study was performed in a blinded fashion where the observer was unaware of the treatment of the animal. Below a detailed description of the three treatment groups is provided.
1) MBP87-99 Group: Peptides were dissolved in PBS (2 mg/ml). The peptide solution was mixed 1:1 with CFA supplemented with Mycobacterium tubercolosum H37RA, 4 mg/ml and mixed until an emulgate Wars formed. 200 μl emulgate was injected per rat, intra-dermally (i.d.) in the root of the tail (containing 200 μg MBP87-99 and 400 μg Mycobacterium).
The neurological function in immunised animals was evaluated daily. The evaluation was performed blinded by an observer unaware of the treatment groups and codes used in the experiment. This evaluation was performed daily, where the clinical signs of EAE were noted. The clinical signs of EAE were scored according to the following scale: grade 0=no clinical signs, grade 1=tail paralysis or unsteady gait, grade 2=hind leg paraparesis, grade 3=hind leg paralysis, grade 4=complete paralysis (tetraplegia) and grade 5 moribound state or death.
The weight of animals was also measured on a daily basis, as one of the earliest signs of EAE is a weight reduction. The weight of the MBP and peptide immunised animals was compared to the PBS control-group.

Lewis rats [4] = assay: Oral tolerance: feeding of isoAspartyl MBP87-99 before EAE induction (Example 8); type: in vivo, rat
Description: 32 female Lewis (L haplotype, Harlan) rats, 8 weeks of age were used in the experiment.
Animals were immunised with the iso-aspartyl form of MBP87-99. Peptides were dissolved in PBS (2 mg/). The peptide solution was mixed 1:1 with CFA supplemented with Mycobacterium tubercolosum H37RA, 4 mg/ml and mixed until an emulgate was formed. 200 μl emulgate was injected per rat, intra-dermally (i.d.) in the root of the tail (containing 200 μg MBP87-99 and 400 μg Mycobacterium).
The solutions containing the MBP87-99 isoAspartyl peptides are fed to the animals using a plastic syringe. Control animals are given PBS alone. The effect of the oral administered peptide preparations is investigated at two dosing regimens (one dose 7 days before immunisation vs. 3 doses at one-week intervals before the immunisation. Furthermore, the effect of the dose of orally administered *Asx containing peptide on disease expression is investigated. Rats are fed various amounts of the peptide listed above 14 days before the day of immunisation (day −14) and at day −7 and 0 (day of immunisation). The rats are given either 25, 100 or 500 μg of the peptide, and eight rats are allocated to each treatment regimen as indicated in the table below.
The disease progression was monitored daily by scoring the neurological function in immunized animals as described in example 7. In addition animals were weighed daily. In addition, the animals were sacrificed sixteen days after immunisation for histopathological examination. The rat brains and spinal cords were dissected, fixed in 70% ethanol, containing 5% acetic acid and 4% formalin, dehydrated and embedded in paraffin. Multiple 5 μm thick section were prepared from cerebellum, brain stem, spinal cord C1-4 and L1-6 and stained with hematoxylin-eosin. The frequency of inflammatory infiltrates were scored, using hematoxylineosin stained section, as follows: 0 No inflammation, 1 small number of perivascular infiltration present in the tissue, 2 inflammation with several perivascular infiltrates, and 3 several perivascular infiltrates and tissue necrosis. […]

Substance | autoantibody reactivity of RA RF+ sera compared with RA RF- and control sera (ELISA signal) [1] | competition of binding of RA autoantibodies to Thy-GA-Trp-Leu-*Asx-Gly-Lys-Glu-Tyr coated plates (RA autoantibodies) | incidence of full-blown EAE (clinical score ≧2) (Lewis rats [3]) | time of minimum weight (Lewis rats [3]) | reduction of weight compared to PBS controls at minimum (Lewis rats [3]) | also measured
Thy-GA-Glu-Lys-Ala-His-*Asx-Gly-Gly-Arg: another irrelevant Thy-GA conjugate [reference compound] | no differentiation between the groups | – | – | – | – | –
Thy-GA-Trp-Leu-*Asx-Gly-Lys-Glu-Tyr: peptide coupled to thyroglobulin with glutaraldehyde | – | able to compete out the binding | – | – | – | reactivity in competition RIA (percent inhibition by competing peptide), group basis [2]: significant reactivity
Trp-Leu-*Asx-Gly-Lys-Glu-Tyr | elevated autoantibody reactivity | could be competed out | – | – | – | –
VHFFKNIVTPRTP [Asn MBP87-99, non-modified MBP87-99 peptide, reference compound] | – | – | 75% | 16 days post immunization | 26% | fraction of animals affected by EAE with relatively mild symptoms (clinical score <3) (Lewis rats [3]; scale grade 0-5): one third
isoAsp MBP87-99: MBP87-99 peptide (VHFFKNIVTPRTP) in isomerised form, Asn 92 giving iso-Asp (VHFFK[βAsp]IVTPRTP) | – | – | 25% | 16 days post immunization | 19% | EAE induction (result in words) (Lewis rats [3]; onset, peak score day and score levels comparable to non-modified control peptide): induced significant EAE; clinical score of all animals affected with EAE (Lewis rats [3]; scale grade 0-5): ≥ 3; EAE development after multiple 500 μg oral feedings (Lewis rats [4]; 500 μg fed at days -14, -7 and 0): complete suppression; EAE development after multiple oral feedings (Lewis rats [4]; fed at days -14, -7 and 0 before immunisation with iso-aspartyl MBP87-99): complete suppression; mean histological score (number of inflammation foci) compared to controls (Lewis rats [4]; multiple oral doses, sixteen days after immunisation, P<0.05): significantly reduced
